Where a chain is given by its changes, count along the chain named. “Also recorded” adds a separate entry of the source.
T1: ST3O (Sus scrofa, UniProt Q02745)
T1 sequence (Q02745 28-343 limits assumed): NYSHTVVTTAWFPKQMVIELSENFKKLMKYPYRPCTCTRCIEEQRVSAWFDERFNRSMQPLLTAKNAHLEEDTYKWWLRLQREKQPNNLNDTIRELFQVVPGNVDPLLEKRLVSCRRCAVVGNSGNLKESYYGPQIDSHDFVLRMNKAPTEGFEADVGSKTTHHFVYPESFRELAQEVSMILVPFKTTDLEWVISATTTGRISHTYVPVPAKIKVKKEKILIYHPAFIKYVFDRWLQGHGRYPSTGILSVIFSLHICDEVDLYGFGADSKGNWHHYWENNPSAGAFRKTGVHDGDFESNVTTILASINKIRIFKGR

T2: ST3N (Rattus norvegicus, UniProt Q02734)
T2 sequence (Q02734 29-374 limits assumed): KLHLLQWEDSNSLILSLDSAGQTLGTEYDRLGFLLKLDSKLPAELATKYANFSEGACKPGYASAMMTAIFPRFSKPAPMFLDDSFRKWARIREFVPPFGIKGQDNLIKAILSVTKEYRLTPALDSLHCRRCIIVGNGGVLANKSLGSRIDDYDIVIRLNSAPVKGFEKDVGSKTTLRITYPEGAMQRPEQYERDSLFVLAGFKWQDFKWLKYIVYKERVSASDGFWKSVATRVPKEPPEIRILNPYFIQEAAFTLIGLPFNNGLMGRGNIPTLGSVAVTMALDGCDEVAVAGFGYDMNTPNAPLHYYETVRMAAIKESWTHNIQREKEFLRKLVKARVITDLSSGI

T3: ST3 (Homo sapiens, UniProt Q11206)
T3 construct: A truncated form of ST3, lacking the first 39 amino acids of the long-form open reading frame; made in house; host or cells: COS-1 (concentrated culture medium)
T3 sequence (Q11206 41-333): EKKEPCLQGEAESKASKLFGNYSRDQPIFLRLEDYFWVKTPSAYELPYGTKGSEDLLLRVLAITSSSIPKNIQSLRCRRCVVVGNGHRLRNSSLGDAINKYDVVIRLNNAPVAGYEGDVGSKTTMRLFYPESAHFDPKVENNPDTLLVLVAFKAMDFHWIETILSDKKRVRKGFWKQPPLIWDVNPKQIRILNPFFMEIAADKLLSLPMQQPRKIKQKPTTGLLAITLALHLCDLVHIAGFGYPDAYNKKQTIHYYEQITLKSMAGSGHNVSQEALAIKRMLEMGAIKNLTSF

T4: rat ST3N (Rattus norvegicus, UniProt Q02734)
T4 sequence (Q02734 29-374 limits assumed): T2 sequence (Q02734 29-374 limits assumed)

T5: human ST3N (Homo sapiens, UniProt Q11203)
T5 sequence (Q11203 62-375): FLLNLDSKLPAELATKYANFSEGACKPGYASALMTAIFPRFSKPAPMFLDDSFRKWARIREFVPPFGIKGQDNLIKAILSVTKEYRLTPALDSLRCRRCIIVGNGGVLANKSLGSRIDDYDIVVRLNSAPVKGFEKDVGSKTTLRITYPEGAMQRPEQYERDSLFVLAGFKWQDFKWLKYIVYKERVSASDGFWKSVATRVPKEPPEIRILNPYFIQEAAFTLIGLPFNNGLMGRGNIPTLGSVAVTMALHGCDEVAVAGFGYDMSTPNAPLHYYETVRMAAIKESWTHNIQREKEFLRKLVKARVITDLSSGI

B1: porcine Galβ1,3GalNAc α2,3 sialyltransferase (protein)
chain: T1 sequence (Q02745 28-343 limits assumed) with R201T
B2: Form A: 48 kDa molecular weight form of the porcine liver α2,3 sialyltransferase (protein)
chain: TLKLLTLLVLFIFLTSFFLNYSHTVVTTAWFPKQMVIELSENFKKLMKYPYRPCTCTRCIEEQRVSAWFDERFNRSMQPLLTAKNAHLEEDTYKWWLRLQREKQPNNLNDTIRELFQVVPGNVDPLLEKRLVSCRRCAVVGNSGNLKESYYGPQIDSHDFVLRMNKAPTEGFEADVGSKTTHHFVYPESFRELAQEVSMILVPFKTTDLEWVISATTTGTISHTYVPVPAKIKVKKEKILIYHPAFIKYVFDRWLQGHGRYPSTGILSVIFSLHICDEVDLYGFGADSKGNWHHYWENNPSAGAFRKTGVHDGDFESNVTTILASINKIRIFKGR

What was measured:
ST3O = molecular target: T1, ST3O; assay: Acceptor specificity of ST3O (Table 4); conditions: for Relative rate (%) ST30: acceptor 0.2 mM
ST3N = molecular target: T2, ST3N; assay: Acceptor specificity of ST3N (Table 4)
ST3 = molecular target: T3, ST3; assay: Acceptor specificity of soluble ST3 (AZ3, concentrated COS-1 media); assay type: biochemical; conditions: for Relative rate (%) ST3: acceptor 0.2 mM
rat ST3N = molecular target: T4, rat ST3N; assay: Acceptor specificity of soluble rat ST3N fusion protein (Table 3); conditions: acceptor 0.2 mM; relative to LNT
human ST3N = molecular target: T5, human ST3N; assay: Acceptor specificity of soluble human ST3N (protein A fusion from COS-1 cells, on IgG Sepharose); conditions: acceptor 0.2 mM; relative to LNT
[1] = test system: acceptor substrate antifreeze glycoprotein (AFGP); assay: Sialyltransferase activity of purified porcine liver α2,3-0 sialyltransferase; assay type: biochemical; conditions: after third CDP-hexanolamine agarose column
Text: FIG. 4 Purification of the α2,3-0 sialyltransferase on CDP-hexanolamine agarose (column III, CDP elution). […] In columns A and B elution of enzyme activity correlated predominantly with 48 kDa and a 45 kDa protein species, respectively (see inset, SDS-PAGE). These two species, form A and form B of the α2,3 sialyltransferase, had specific activities of 8-10 units/mg protein. The 48 kDA and 45 kDA species were blotted to a PVDF membrane and analyzed by NH2 -terminal sequencing.
The enzyme was purified from a porcine liver Triton X-100 extract by affinity chromatography on three successive columns of CDP-hexanolamineagarose. The elution profile from the first and third purification steps are shown in FIG. 3 and FIG. 4, respectively. […] These two peaks were separated by combining the indicated fractions into pools A and B, these two pools were subsequently found to be enriched in two different molecular weight forms of the α2,3-0 sialyltransferase.
The membranes were extracted three times with buffer (Conradt, H. S. et al., in Sialic Acids 1988 Proceedings of the Japanese-German Symposium on Sialic Acids (Schauer and Yamakawa, eds.) pp. 104-105, Verlag Wissenschaft and Bildung, Kiel [1988]) and the extract was passed over a 1.5 l CDP-hexanolamine agarose column (column 1) (16 umol/ml). After washing the column with 3 L buffer B, the column was eluted with a linear gradient of 0.05 to 1.0 M KCL (2.5 l×2.5 l) in buffer B. Fractions containing α2,3 sialyltransferase were combined into two pools A and B, representing the main part and the trailing end of the peak, respectively (see FIG. 3). The pools were dialysed against buffer B and subjected to another round of affinity chromatography on CDP-hexanolamine agarose (columns IIA and IIB). A 150 ml column was used for pool A and a 30 ml column was used for pool B; two preparations from column I (from total of 4 kg liver) were loaded on the same column in step II. […]

Molecule	Relative rate (%) ST30 (ST3O) [%]	Relative rate (%) ST3N (ST3N; acceptor 0.2 mM) [%]	acceptor substrate for ST3 enzyme (in words) (ST3)	Relative rate (%) ST3N (ST3N; acceptor 2.0 mM) [%]	further results
Galβ1,3GalNAcβ1,4(NeuAcα2-3)Galβ1,4Glcβ1-Cer	47	0	also serving as substrates, but to a lesser extent	–	acceptor substrate for ST30 enzyme (in words) (ST3O): well
Galβ1,3GalNAcβ1,4Galβ1,4Glcβ1-Cer	88	8	preferred one	–	acceptor substrate for ST30 enzyme (in words) (ST3O): well; Relative rate (%) ST3 (ST3): 64%
GalNAcβ1,4Galβ1,4Glcβ1-Cer [GalNAcβ1,4Galβ1,4Glcβ1-Cer (Asialo-GM2)]	0.5	0	–	–	–
Asialofetuin: glycoprotein acceptor (Galβ1,3GalNAc-Thr/Ser and Galβ1,4GlcNAc-R)	26	18	sialic acid was incorporated; also recorded: best acceptor	–	–
Galβ1,4GlcNAcβ1,3Galβ1,4Glcβ1-Cer [Galβ1,4GlcNAcβ1,3Galβ1,4Glcβ1-Cer (nLc4)]	–	–	also serving as substrates, but to a lesser extent	–	–
CC(=O)N[C@H]1[C@H](O[C@H]2[C@@H](O)[C@@H](CO)O[C@@H](O[C@H]3[C@H](O)[C@@H](O)C(O)O[C@@H]3CO)[C@@H]2O)O[C@H](CO)[C@@H](O[C@@H]2O[C@H](CO)[C@H](O)[C@H](O)[C@H]2O)[C@@H]1O[C@@H]1O[C@@H](C)[C@@H](O)[C@@H](O)[C@@H]1O (stereo partly shown) [Galβ1,4(Fucα1,3)GlcNAcβ1,3Galβ1,4Glc]	0	0	–	0	–
CC(=O)N[C@H]1C(O)O[C@H](CO)[C@@H](O[C@@H]2O[C@H](CO)[C@H](O)[C@H](O)[C@H]2O)[C@@H]1O (stereo partly shown) [Galβ1,4GlcNAc]	0	19	–	46	Relative activity (%) Rat (rat ST3N): 19%; Relative activity (%) Human (human ST3N): 22%
Galβ1,4Glcβ1-Cer [Galβ1,4Glcβ1-Cer (LacCer)]	0.1	0	low but significant level incorporation	–	–
intact fetuin: glycoprotein examined as acceptor	–	–	not any significant amount of sialic acid incorporated	–	–
CC(=O)N[C@H]1[C@H](O[C@H]2[C@@H](O)[C@@H](CO)O[C@@H](O[C@H]3[C@H](O)[C@@H](O)C(O)O[C@@H]3CO)[C@@H]2O)O[C@H](CO)[C@@H](O)[C@@H]1O[C@@H]1O[C@H](CO)[C@H](O)[C@H](O)[C@H]1O (stereo partly shown) [Galβ1,3GlcNAcβ1,3Galβ1,4Glc (LNT), Galβ1,3GlcNAcβ1,3Galβ1,4Glc]	0.5	100	–	100	Relative activity (%) Rat (rat ST3N): 100%
GalNAcβ1,4(NeuAcα2-3)Galβ1,4Glcβ1-Cer	0.3	0	–	–	Relative rate (%) ST3 (ST3): 1%
CC(=O)N[C@H]1[C@H](O[C@H]2[C@@H](O)[C@@H](CO)O[C@@H](O[C@H]3[C@H](O)[C@@H](O)C(O)O[C@@H]3CO)[C@@H]2O)O[C@H](CO)[C@@H](O[C@@H]2O[C@@H](C)[C@@H](O)[C@@H](O)[C@@H]2O)[C@@H]1O[C@@H]1O[C@H](CO)[C@H](O)[C@H](O)[C@H]1O (stereo partly shown) [Galβ1,3(Fucα1,4)GlcNAcβ1,3Galβ1,4Glc]	0	0	–	0	–
NeuAcα2,3Galβ1,4Glcβ1-Cer [NeuAcα2,3Galβ1,4Glcβ1-Cer (GM3)]	0.1	0	–	–	–
CC(=O)N[C@H]1[C@H](O[C@H]2[C@@H](O)[C@@H](CO)O[C@@H](O[C@H]3[C@H](O)[C@@H](O)C(O)O[C@@H]3CO)[C@@H]2O)O[C@H](CO)[C@@H](O[C@@H]2O[C@H](CO)[C@H](O)[C@H](O)[C@H]2O)[C@@H]1O (stereo partly shown) [Galβ1,4GlcNAcβ1,3Galβ1,4Glc (LNnT), Galβ1,4GlcNAcβ1,3Galβ1,4Glc]	0	4	–	18	Relative activity (%) Rat (rat ST3N): 4%
α1 -acid glycoprotein: intact glycoprotein examined as acceptor	–	–	not any significant amount of sialic acid incorporated	–	–
CC(=O)N[C@H]1C(O)O[C@H](CO)[C@H](O)[C@@H]1O[C@@H]1O[C@H](CO)[C@H](O)[C@H](O)[C@H]1O (stereo partly shown) [Galβ1,3GalNAc]	100	3	–	10	–
B1	–	–	–	–	specific activity [1]: 8-10 units/mg protein
B2	–	–	–	–	specific activity [1]: 8-10 units/mg protein
